Results on one compound are retold here after patent publication US20250214993A1, “AROMATIC RING COMPOUND AND USE THEREOF” (SHANGHAI SHIJIANG BIOTECHNOLOGY CO., LTD, priority 2022, published 2025).

The test system of test [1] is mitochondria permeability transition pore (mPTP). As to the kind of experiment: Mitochondria membrane potential difference by TMRM in Daoy cell. Type of test: cell-based, human. Conditions: CsA −, H2O2 +, untreated = 100.
The test system is the same in test [2]. The class given is cell-based, human. Conditions: Daoy cell with empty virus vector; CsA −, H2O2 +; untreated = 100.
Test [3] has the same test system. As to conditions: Daoy cell with PPIF shRNA vector; CsA −, H2O2 +; untreated = 100.

Each structure is given as a SMILES string. Read-outs that look alike come from different tables or passages of the source.

For the compound `OO` [Compound H2O2, H2O2], the “Relative TMRM signal intensity (%), mean value” in test [1] was determined as 82%; in test [2] it was 79%; in test [3], 95%.
